pEC50: −log10 of the molar value.
Molecular target: T1, Triggering receptor expressed on myeloid cells 2 (Homo sapiens, UniProt Q9NZC2)
T1 sequence (Q9NZC2 whole entry): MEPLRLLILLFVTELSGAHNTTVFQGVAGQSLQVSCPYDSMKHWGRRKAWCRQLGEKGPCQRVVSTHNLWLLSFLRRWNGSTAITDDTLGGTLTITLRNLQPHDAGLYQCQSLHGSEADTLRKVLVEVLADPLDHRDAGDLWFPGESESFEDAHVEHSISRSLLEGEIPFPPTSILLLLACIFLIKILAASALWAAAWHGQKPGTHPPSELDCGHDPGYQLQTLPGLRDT
Experiment: Agonist activity at human TREM2 expressed in HEK cells co-expressing human DAP12 assessed as increase in Syk phosphorylation incubated for 30 mins by AlphaLISA assay
Format: cell-based

Row | SMILES | pEC50
1 | COc1cc([C@H]2CN(c3nc(-c4ccc(Cl)cc4F)c4nc(C(F)(F)F)n(C)c(=O)c4n3)CCO2)ccn1 | 8.40
2 | C[C@H]1CN(c2nc(-c3ccc(Cl)cc3F)c3nc(C(F)(F)F)n(C)c(=O)c3n2)C[C@@H](c2cnn(C3CC3)c2)O1 | 8.70
3 | Cc1cc(C2CN(c3nc(-c4ccc(Cl)cc4F)c4nc(C(F)F)n(C)c(=O)c4n3)CCO2)ccn1 (stereo unspecified) | 8.70

Further lines, results first:

Row | pEC50 | SMILES
4 | 8.52 | Cc1cc([C@@H]2CN(c3cc4c(=O)n(C)c(C(F)F)nc4c(-c4ccc(Cl)cc4F)n3)CCO2)ccn1
5 | 8.30 | Cn1cc([C@H]2CN(c3nc(-c4ccc(Cl)cc4F)c4nc(C(F)F)n(C)c(=O)c4n3)CCO2)cn1
6 | 9.00 | Cc1cc([C@@H]2CN(c3nc(-c4ccc(Cl)cc4F)c4nc(C(F)F)n(C)c(=O)c4n3)CCO2)ccn1

From ChEMBL document CHEMBL6134927, “Novel Pyrido[3,4-d]pyrimidin-4-one and Pyrimido[5,4-d]pyrimidin-4-one Derivatives as TREM2 Agonists for Treating Parkinson's Disease” (ACS Med Chem Lett, 2025)
